Experiment [1] has as its system Mycobacterium tuberculosis. The experiment can be described thus: Antitubercular activity against Mycobacterium tuberculosis H37Rv assessed as bacterial growth inhibition at 1 uM incubated for 5 days by resazurin microtiter assay relative to control. The format is functional. The conditions noted are these: 120 h, time 5 day. A general note: The colour change of resazurin is a common sign of viable cells or microbes.

For experiment [2], the system named is Mycobacterium tuberculosis. Kind of experiment: Antitubercular activity against Mycobacterium tuberculosis H37Rv assessed as bacterial growth inhibition at 10 uM incubated for 5 days by resazurin microtiter assay relative to control. Type of experiment: functional. The note with it: 120 h, time 5 day.
The test system of experiment [3] is Mycobacterium tuberculosis. The experiment can be described thus: Antitubercular activity against Mycobacterium tuberculosis H37Rv assessed as bacterial growth inhibition incubated for 5 days by resazurin microtiter assay. The conditions noted are these: 120 h, time 5 day. Type of experiment: functional.
Experiment [4] has as its system Mycobacterium tuberculosis. Kind of experiment: Antitubercular activity against Mycobacterium tuberculosis H37Rv by broth microdilution method. Type of experiment: functional. (In broth dilution the organism is exposed to a series of concentrations in liquid medium.)
For experiment [5], the target named is Voltage-gated inwardly rectifying potassium channel KCNH2 (Homo sapiens, UniProt Q12809). The experiment can be described thus: Inhibition of fluorescently labelled tracer binding to human ERG by competitive binding assay.

SMILES strings stand for the structures. ≈ marks a conversion by molar mass, not a printed value.

Chain of Voltage-gated inwardly rectifying potassium channel KCNH2 (Q12809 whole entry): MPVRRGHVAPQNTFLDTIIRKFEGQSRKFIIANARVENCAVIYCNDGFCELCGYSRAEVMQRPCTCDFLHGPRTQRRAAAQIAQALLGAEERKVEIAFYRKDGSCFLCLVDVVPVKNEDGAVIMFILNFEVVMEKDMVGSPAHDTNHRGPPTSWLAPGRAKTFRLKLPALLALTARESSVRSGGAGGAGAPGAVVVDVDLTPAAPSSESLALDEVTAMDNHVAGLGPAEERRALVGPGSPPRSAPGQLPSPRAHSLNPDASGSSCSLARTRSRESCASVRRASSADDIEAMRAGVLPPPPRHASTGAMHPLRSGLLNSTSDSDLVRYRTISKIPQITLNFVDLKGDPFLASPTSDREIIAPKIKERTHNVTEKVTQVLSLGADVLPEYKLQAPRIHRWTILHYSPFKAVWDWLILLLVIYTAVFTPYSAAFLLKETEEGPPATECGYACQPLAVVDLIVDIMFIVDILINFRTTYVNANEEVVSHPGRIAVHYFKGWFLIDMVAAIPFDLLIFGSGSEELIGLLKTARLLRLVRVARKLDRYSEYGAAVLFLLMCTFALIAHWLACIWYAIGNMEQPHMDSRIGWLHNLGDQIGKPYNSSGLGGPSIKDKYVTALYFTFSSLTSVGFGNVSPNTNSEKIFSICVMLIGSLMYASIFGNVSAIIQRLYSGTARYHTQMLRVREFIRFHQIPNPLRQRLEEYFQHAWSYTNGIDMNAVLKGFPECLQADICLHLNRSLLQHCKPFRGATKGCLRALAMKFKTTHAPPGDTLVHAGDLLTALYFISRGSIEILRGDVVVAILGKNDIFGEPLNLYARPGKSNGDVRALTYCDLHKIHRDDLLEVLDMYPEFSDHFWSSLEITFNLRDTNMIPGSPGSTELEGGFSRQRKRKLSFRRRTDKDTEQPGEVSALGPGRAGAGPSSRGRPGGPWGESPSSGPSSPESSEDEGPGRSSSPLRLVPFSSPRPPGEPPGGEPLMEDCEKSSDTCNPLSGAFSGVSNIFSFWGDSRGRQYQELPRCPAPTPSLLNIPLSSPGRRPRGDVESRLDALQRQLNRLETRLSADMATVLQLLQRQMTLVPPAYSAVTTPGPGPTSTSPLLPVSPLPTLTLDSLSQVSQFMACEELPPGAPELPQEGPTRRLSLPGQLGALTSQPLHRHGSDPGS

By inhibition is commonly meant the share of the control response that was lost under treatment. Broadly, the MIC90 is the lowest concentration that inhibits either 90% of growth or 90% of the strains tested, depending on the study. As for `COc1ncc(-c2ccccc2Cl)cc1C(c1ccccc1)C(O)(CCN(C)C)c1cccc2ccccc12` (configuration not stated), the inhibition at 1 µM in experiment [1] turned out to be 0%. Also, in experiment [2], the inhibition at 10 µM is 100%. Also, the MIC90 in experiment [3] worked out at 4.52 µM (≈ 2.43 µg/mL).

For `COc1ncc(-c2ccc(Cl)c(C(F)(F)F)c2)cc1C(c1ccccc1)C(O)(CCN(C)C)c1cccc2ccccc12` (configuration not stated), the inhibition at 1 µM in experiment [1] is 0%. In addition, in experiment [2], the inhibition at 10 µM worked out at 100%.

In the case of `COc1nc2ccc(Br)cc2cc1[C@@H](c1ccccc1)[C@@](O)(CCN(C)C)c1cccc2ccccc12` [BEDAQUILINE], the MIC90 in experiment [3] came out at 0.35 µM (≈ 0.194 µg/mL); in experiment [4], 0.027 µM (≈ 0.015 µg/mL).

On to `CO[C@H]1/C=C/O[C@@]2(C)Oc3c(C)c(O)c4c(O)c(c(/C=N/N5CCN(C)CC5)c(O)c4c3C2=O)NC(=O)/C(C)=C\C=C\[C@H](C)[C@H](O)[C@@H](C)[C@@H](O)[C@@H](C)[C@H](OC(C)=O)[C@@H]1C` [RIFAMPIN], for which, in experiment [3], the MIC90 turned out to be 0.006 µM (≈ 0.00494 µg/mL).

`COc1ncc(-c2cccc3ccccc23)cc1C(c1ccccc1)C(O)(CCN(C)C)c1cccc2ccccc12` (configuration not stated): the inhibition at 1 µM in experiment [1] was 5%. In addition, the inhibition at 10 µM in experiment [2] amounted to 100%.

Regarding `COc1ncc(-c2ccc(F)c(Cl)c2)cc1C(c1ccccc1)C(O)(CCN(C)C)c1cccc2ccccc12` (configuration not stated), the inhibition at 1 µM in experiment [1] amounted to 0%. In addition, the inhibition at 10 µM in experiment [2] came out at 100%.

Consider `COc1nc(OC)c(C(c2ccccc2)C(O)(CCN(C)C)c2cccc3ccccc23)cc1-c1ccc(F)cc1` (configuration not stated), for which the MIC90 in experiment [3] turned out to be 2.41 µM (≈ 1.33 µg/mL).

In the case of `COc1ncc(-c2ccccc2C#N)cc1C(c1ccccc1)C(O)(CCN(C)C)c1cccc2ccccc12` (configuration not stated), the inhibition at 1 µM in experiment [1] is 0%. Also, the inhibition at 10 µM in experiment [2] worked out at 90%.

Turning to `COc1ncc(-c2ccc(F)cc2C#N)cc1C(c1ccccc1)C(O)(CCN(C)C)c1cccc2ccccc12` (configuration not stated), in experiment [1], the inhibition at 1 µM is 0%. In experiment [2], the inhibition at 10 µM was 100%.

By EC50 is commonly meant the concentration at which the effect is half-maximal. Higher therefore signals weaker potency. Consider `COc1nc(OC)c([C@@H](c2ccccc2)[C@@](O)(CCN(C)C)c2cccc3ccccc23)cc1-c1ccc(C#N)cc1`, for which the MIC90 in experiment [3] came to 1 µM (≈ 0.558 µg/mL). Further, the response in experiment [5] was half-maximal at 1.52 µM (EC50).

Consider `COc1ncc(Br)cc1C(c1ccccc1)C(O)(CCN(C)C)c1cccc2ccccc12` (mixture of isomers), for which the MIC90 in experiment [3] was over 10 µM.

Consider `COc1ncc(-c2cccc(Cl)c2)cc1C(c1ccccc1)C(O)(CCN(C)C)c1cccc2ccccc12` (configuration not stated), for which the inhibition at 1 µM in experiment [1] is 5%. Besides, the inhibition at 10 µM in experiment [2] was 100%. Moreover, the MIC90 in experiment [3] was 7.94 µM (≈ 4.26 µg/mL).

Take `COc1ncc(-c2cccc(F)c2)cc1C(c1ccccc1)C(O)(CCN(C)C)c1cccc2ccccc12` (configuration not stated): the inhibition at 1 µM in experiment [1] stood at 5%. For the same molecule, in experiment [2], the inhibition at 10 µM came out at 100%. Also, the MIC90 in experiment [3] was 2.51 µM (≈ 1.31 µg/mL).

Consider `COc1ncc(-c2ccc(C(C)(C)C)cc2)cc1C(c1ccccc1)C(O)(CCN(C)C)c1cccc2ccccc12` (configuration not stated), for which the inhibition at 1 µM in experiment [1] was determined as 90%. In addition, the inhibition at 10 µM in experiment [2] was found to be 100%. For the same molecule, the MIC90 in experiment [3] was found to be 3.09 µM (≈ 1.73 µg/mL).

In the case of `COc1nc(OC)c(C(c2ccccc2)C(O)(CCN(C)C)c2cccc3ccccc23)cc1-c1ccc(Cl)cc1` (configuration not stated), the MIC90 in experiment [3] was 3.44 µM (≈ 1.95 µg/mL).

As to `COc1nc(OC)c(C(c2ccccc2)C(O)(CCN(C)C)c2cccc3ccccc23)cc1-c1ccc(C#N)cc1` (configuration not stated), the MIC90 in experiment [3] came to 1.24 µM (≈ 0.692 µg/mL).

In the case of `COc1ncc(-c2ccc(F)c(C)c2)cc1C(c1ccccc1)C(O)(CCN(C)C)c1cccc2ccccc12` (configuration not stated), in experiment [1], the inhibition at 1 µM came to 5%. In addition, the inhibition at 10 µM in experiment [2] stood at 100%.

On to `COc1ncc(-c2ccc(C(F)(F)F)cc2)cc1C(c1ccccc1)C(O)(CCN(C)C)c1cccc2ccccc12` (configuration not stated), for which, in experiment [1], the inhibition at 1 µM stood at 5%. Moreover, the inhibition at 10 µM in experiment [2] was determined as 100%. Also, the MIC90 in experiment [3] is 4.26 µM (≈ 2.43 µg/mL).

On to `COc1nc(OC)c(C(c2ccccc2)C(O)(CCN(C)C)c2cccc3ccccc23)cc1-c1ccccc1` (configuration not stated), for which the MIC90 in experiment [3] was 3.88 µM (≈ 2.07 µg/mL).

`COc1ncc(-c2ccccc2)cc1C(c1ccccc1)C(O)(CCN(C)C)c1cccc2ccccc12` (configuration not stated): the inhibition at 1 µM in experiment [1] amounted to 10%. For the same molecule, the inhibition at 10 µM in experiment [2] was determined as 100%. Further, the MIC90 in experiment [3] worked out at 5.51 µM (≈ 2.77 µg/mL).

For the molecule `COc1ncc(-c2ccccc2OC(F)(F)F)cc1C(c1ccccc1)C(O)(CCN(C)C)c1cccc2ccccc12` (configuration not stated), the inhibition at 1 µM in experiment [1] worked out at 0%. Also, in experiment [2], the inhibition at 10 µM is 100%.

As for `COc1nc(OC)c(C(c2ccccc2)C(O)(CCN(C)C)c2cccc3ccccc23)cc1-c1ccc(OC(F)(F)F)cc1` (configuration not stated), the MIC90 in experiment [3] worked out at 2.34 µM (≈ 1.44 µg/mL).

Take `COc1nc(OC)c([C@H](c2ccccc2)[C@](O)(CCN(C)C)c2cccc3ccccc23)cc1-c1ccc(C#N)cc1`: the MIC90 in experiment [3] was 8 µM (≈ 4.46 µg/mL).

As to `COc1ncc(-c2ccc(C)c(Cl)c2)cc1C(c1ccccc1)C(O)(CCN(C)C)c1cccc2ccccc12` (configuration not stated), the inhibition at 1 µM in experiment [1] was 5%. Further, in experiment [2], the inhibition at 10 µM was determined as 100%.

On to `COc1ncc(-c2ccc(F)cc2F)cc1C(c1ccccc1)C(O)(CCN(C)C)c1cccc2ccccc12` (configuration not stated), for which the inhibition at 1 µM in experiment [1] turned out to be 0%. The inhibition at 10 µM in experiment [2] was found to be 100%.

On to `COc1ncc(-c2ccc(F)cc2)cc1C(c1ccccc1)C(O)(CCN(C)C)c1cccc2ccccc12` (configuration not stated), for which the inhibition at 1 µM in experiment [1] was 100%. Also, the inhibition at 10 µM in experiment [2] was 100%. Further, in experiment [3], the MIC90 turned out to be 0.8 µM (≈ 0.417 µg/mL).

For the molecule `COc1ncc(-c2ccc(C(F)(F)F)cc2Cl)cc1C(c1ccccc1)C(O)(CCN(C)C)c1cccc2ccccc12` (configuration not stated), in experiment [1], the inhibition at 1 µM was determined as 5%. Also, in experiment [2], the inhibition at 10 µM came to 100%.

Regarding `COc1ccc(-c2cc(C(c3ccccc3)C(O)(CCN(C)C)c3cccc4ccccc34)c(OC)nc2OC)cc1` (configuration not stated), in experiment [3], the MIC90 amounted to 3.94 µM (≈ 2.22 µg/mL).

For `COc1ncc(-c2ccc(OC(F)(F)F)cc2)cc1C(c1ccccc1)C(O)(CCN(C)C)c1cccc2ccccc12` (configuration not stated), the inhibition at 1 µM in experiment [1] was found to be 10%. Besides, in experiment [2], the inhibition at 10 µM was 100%. In addition, the MIC90 in experiment [3] was found to be 6.05 µM (≈ 3.55 µg/mL).

As for `COc1ncc(-c2ccccc2F)cc1C(c1ccccc1)C(O)(CCN(C)C)c1cccc2ccccc12` (configuration not stated), in experiment [1], the inhibition at 1 µM is 0%. For the same molecule, in experiment [2], the inhibition at 10 µM came to 100%. Further, the MIC90 in experiment [3] was found to be 2.6 µM (≈ 1.35 µg/mL).

In the case of `COc1ncc(-c2ccc(Cl)c(Cl)c2)cc1C(c1ccccc1)C(O)(CCN(C)C)c1cccc2ccccc12` (configuration not stated), in experiment [1], the inhibition at 1 µM amounted to 0%. Further, the inhibition at 10 µM in experiment [2] was determined as 100%.

For `COc1ncc(-c2ccc(Cl)cc2Cl)cc1C(c1ccccc1)C(O)(CCN(C)C)c1cccc2ccccc12` (configuration not stated), the inhibition at 1 µM in experiment [1] came to 0%. For the same molecule, the inhibition at 10 µM in experiment [2] came to 100%.

Turning to `COc1ncc(-c2ccc(Cl)cc2)cc1C(c1ccccc1)C(O)(CCN(C)C)c1cccc2ccccc12` (configuration not stated), the inhibition at 1 µM in experiment [1] was 5%. The inhibition at 10 µM in experiment [2] was 100%. The MIC90 in experiment [3] amounted to 6.94 µM (≈ 3.73 µg/mL).

Source of the values: ChEMBL document CHEMBL4732038 (RSC Med Chem, 2021).
